{
  "source": "patent US11439713B2",
  "about": "“Method for creating a renal injury model to screen molecules for the treatment of renal injury” (BAYER AKTIENGESELLSCHAFT, priority 2017, dated 2022)",
  "molecules": {"B1": {"name": "Sema3a: recombinant mouse Semaphorin-3A protein (R&D System), non-hypertensive injury inducer (protein, UniProt O08665 21-772, looked up)", "Semaphorin-3A": "NYANGKNNVPRLKLSYKEMLESNNVITFNGLANSSSYHTFLLDEERSRLYVGAKDHIFSFNLVNIKDFQKIVWPVSYTRRDECKWAGKDILKECANFIKVLEAYNQTHLYACGTGAFHPICTYIEVGHHPEDNIFKLQDSHFENGRGKSPYDPKLLTASLLIDGELYSGTAADFMGRDFAIFRTLGHHHPIRTEQHDSRWLNDPRFISAHLIPESDNPEDDKVYFFFRENAIDGEHSGKATHARIGQICKNDFGGHRSLVNKWTTFLKARLICSVPGPNGIDTHFDELQDVFLMNSKDPKNPIVYGVFTTSSNIFKGSAVCMYSMSDVRRVFLGPYAHRDGPNYQWVPYQGRVPYPRPGTCPSKTFGGFDSTKDLPDDVITFARSHPAMYNPVFPINNRPIMIKTDVNYQFTQIVVDRVDAEDGQYDVMFIGTDVGTVLKVVSVPKETWHDLEEILLEEMTVFREPTTISAMELSTKQQQLYIGSTAGVAQLPLHRCDIYGKACAECCLARDPYCAWDGSSCSRYFPTAKRRTRRQDIRNGDPLTHCSDLQHHDNHHGPSLEERIIYGVENSSTFLECSPKSQRALVYWQFQRRNEDRKEEIRMGDHIIRTEQGLLLRSLQKKDSGNYLCHAVEHGFMQTLLKVTLEVIDTEHLEELLHKDDDGDGSKIKEMSSSMTPSQKVWYRDFMQLINHPNLNTMDEFCEQVWKRDRKQRRQRPGHSQGSSNKWKHMQESKKGRNRRTHEFERAPRSV"}},
  "key": {"mice": {"test_system": "mice", "assay": "GFR-based model with AVP and Sinestrin-FITC", "format": "in vivo", "conditions": "AVP 35 μg (15 μg i.v. + 20 μg second bolus); vs control group", "experimental": "A similar setup (FIG. 23) was used with AVP (Sigma-Aldrich, Mo.) at a dose of 35 μg, i.e. using a first bolus with 15 μg AVP, injected i.v. in combination with Sinestrin-FITC 150 mg/kg (50 ul+50 ul) and using a second bolus of 20 μg AVP, 100 uL, injected i.v. As before GFR, was decreased by AVP compared with the control group."}, "C57Bl/6 mice [1]": {"test_system": "C57Bl/6 mice", "assay": "AGISHA model with Vasopressin (AVP) as injury inducer (ACR in urine)", "format": "in vivo", "conditions": "AVP 10 μg i.v.+10 μg s.c.; vs NaCl"}, "[2]": {"test_system": "rat model of hypertension", "conditions": "Hoffmann L S et al. 2015; cited from earlier work"}, "C57Bl/6 mice [3]": {"test_system": "C57Bl/6 mice", "assay": "AGISHA model with AngII as injury inducer (ACR in urine)", "format": "in vivo", "excerpt": "Five groups with 10-12 mice per group (C57Bl/6, Charles River Laboratories, 6-7 weeks old) were set for one experiment. After delivery, animals remained in a temperature- and light-controlled room with standardized mouse chow and water ad libitum for a one week acclimatization period, following guidelines of local governmental institutions (LANUV Germany). The groups were divided as follows (see FIG. 1): • 1. Control group without AngII bolus injection, but with control saline and additional (oral) administration of drug vehicle (10% ethanol, 40% solutol, 50% water or saline). • 2. AngII group, treated with AngII in normal saline, and drug vehicle. AngII administration occurred in two bolus injections (i.v.+s.c.) of 10 μg (5 μg i.v.+5 μg s.c.), 16 μg (8 μg i.v.+8 μg s.c.) and 20 μg (10 μg i.v.+10 μg s.c.) per mouse, where the first bolus was injected intravenously and the second bolus subcutaneously. The drug vehicle was administered orally.\n3. Candidate groups 3 and 4: AngII injection and additional treatment with the investigated drug/drugs. For substance testing, drugs or appropriated vehicles were administered orally, via i.v., s.c., or i.p. Administration occurred prior to or after AngII-injection. For example, investigated drug/drugs were given orally 30 minutes before the induction of the injury. • 4. Group 5 is the positive control group Animals were injected with AngII and treated orally with Losartan 30 mg/kg. Losartan is an AngII receptor blocker AT1 (Pieter B M et al, Pharma. Rev., 1993, Kang P M et al, Progress in Cardiology, 1994).\nAfter AngII injection animals were placed in metabolic cages (Technoplast, Italy) for urine collection for up to 4 hours. At the end of the experiment the urine was analyzed to quantify the ACR. More specifically, the collected urine was analyzed using an automatic analyzer for urinary albumin as well as urinary creatinine (Coban® Integra 400, Roche, Basel, SUI) or using the Mouse albumin ELISA kit (ABCAM, Cambridge, UK). […] The AGISHA model was performed in 3 identical cycles with a one-week break for recovery.\nNegative and positive control experiment. To confirm the findings shown in FIG. 2-4, the mode of action in AGISHA was investigated. In the following experiment, three of the animal groups were pre-treated with three different drugs by oral application 30 minutes before administration of injury inducer (see FIG. 5). • 1) Enalapril 10 mg/kg, an angiotensin-converting enzyme (ACE) inhibitor, is standard of care for high blood pressure. It was used as positive modulator control 1 of the renin-angiotensin system (RAS) in the AGISHA model. • 2) Losartan potassium, 30 mg/kg, angiotensin II type I receptor (AT1) antagonist, standard of care for high blood pressure (Kang et al, 1994; Sica D A et al, Clin Parmacokinet., 2005) was used as positive modulator control 2 of the RAS system in the AGISHA model. • 3) Tivozanib, 3 mg/kg, vascular endothelial grow factor receptor tyrosine kinase inhibitor (Campas C et al, Drugs Fut., 2009) was used as negative modulator of the RAS system during AGISHA model. […]\nThe experiment was performed as described in example 5, except that the sGC stimulator 5-cyclopropyl-2-[1-(2-fluorobenzyl)-1H-pyrazolo[3,4-b]pyridin-3-yl]pyrimidin-4-amine was used for treatment. […] Losartan (30 mg/kg) was used as positive control."}, "Male BL6/J mice [4]": {"test_system": "Male BL6/J mice", "assay": "GFBI test model with Sema3a as injury inducer (half-life of Ficoll-FITC)", "format": "in vivo", "conditions": "Sema3a 0.5 μg/g bodyweight i.v., vs BSA control", "experimental": "(§1) AngII induced GBM damage is a fast and stable trigger method to mimic human hypertensive glomerular disease or its complications. However, a non-hypertensive trigger was required to study the non-hypertensive kidney pathologies. […] For the example at hand, other than described by Tapia R et al, Sema3a was injected i.v. and ACR and GFB integrity were evaluated in the following setup with the following experimental groups. • 1) Male BL6/J mice were injected via tail vein with a mix of Ficoll-FITC 150 mg/kg and BSA (0.5 μg/g of BW), in a maximal volume of 100 μl. • 2) Male BL6/J mice were injected via tail vein with a mix of Ficoll-FITC 150 mg/kg and Sema3a (R&D System, USA), 0.5 μg/g of BW, in a maximal volume of 100 μl.\n(§2) The animals went under transcutaneous fluorescent measurement for 2 h, as described before. The GFB integrity test was able to detect the loss of fluorescent dye due to podocyte effacement as well as the increased ACR in the urine. […] This peptide is able to disrupt the ability of the Sema3A to induce the decay of the fluorescent dye. The sensitivity of the GFBI test was evaluated as follows and subjects were pre-treated according to the following groups: • 1. […]"}, "[5]": {"conditions": "Tapia R et al, KI, 2008; cited from earlier work"}, "Male BL6/J mice [6]": {"test_system": "Male BL6/J mice", "assay": "ACR after Sema3a bolus injection", "format": "in vivo", "conditions": "Sema3a 0.5 μg/g bodyweight i.v.; vs BSA control", "experimental": "as §1, §2"}},
  "note": "Entries after “also recorded” stand apart in the source; their conditions may differ.",
  "data": [
    {"molecule": "NC(=O)CC[C@@H]1NC(=O)[C@H](Cc2ccccc2)NC(=O)[C@H](Cc2ccc(O)cc2)NC(=O)[C@@H](N)CSSC[C@@H](C(=O)N2CCC[C@H]2C(=O)N[C@@H](CCCN=C(N)N)C(=O)NCC(N)=O)NC(=O)[C@H](CC(N)=O)NC1=O", "note": "[AVP]", "values": [
      {"measurement": "GFR 2 hrs after AVP bolus injection", "setting": "mice", "result": "decreased; also recorded: significant decrease in GFR"},
      {"measurement": "ACR in urine collected for 4 hours after AVP bolus injection", "setting": "C57Bl/6 mice [1]", "result": "significant increase of ACR"}
    ]},
    {"molecule": "Nc1nc(-c2nn(Cc3ccccc3F)c3ncccc23)ncc1C1CC1", "note": "[5-cyclopropyl-2-[1-(2-fluorobenzyl)-1H-pyrazolo[3,4-b]pyridin-3-yl]pyrimidin-4-amine]", "values": [
      {"measurement": "Effect on angiotensin II-induced cardiovascular remodeling", "setting": "[2]", "result": "ameliorates angiotensin II-induced cardiovascular remodeling"},
      {"measurement": "Reduction of ACR", "setting": "C57Bl/6 mice [3]; 1 mg/kg orally prior to AngII", "result": 54, "unit": "%"},
      {"measurement": "AngII induced ACR, mean±SD", "setting": "C57Bl/6 mice [3]; 1 mg/kg orally prior to AngII 10 μg i.v.+10 μg s.c.", "result": "50 ± 49", "unit": "µg/mg"},
      {"measurement": "AngII induced ACR, mean±SD", "setting": "C57Bl/6 mice [3]; 3 mg/kg orally prior to AngII 10 μg i.v.+10 μg s.c. (sGC stimulator experiment)", "result": "42 ± 35", "unit": "µg/mg"},
      {"measurement": "Reduction of ACR", "setting": "C57Bl/6 mice [3]; 3 mg/kg orally prior to AngII (sGC stimulator experiment)", "result": 62, "unit": "%"}
    ]},
    {"molecule": "B1", "values": [
      {"measurement": "Half-life of fluorescent molecule Ficoll-FITC 2 hrs after Sema3a bolus injection", "setting": "Male BL6/J mice [4]", "result": "significantly decreased half-life"},
      {"measurement": "Half-life of fluorescent molecule Ficoll-FITC 2 hrs after Sema3a bolus injection", "setting": "Male BL6/J mice [4]; listed as Sema3A", "result": "significant decrease in half-life"},
      {"measurement": "ACR after injection of recombinant Sema3a", "setting": "[5]", "result": "robust, transient ACR within 4-24 h"},
      {"measurement": "ACR after Sema3a bolus injection", "setting": "Male BL6/J mice [6]", "result": "significantly increased ACR"}
    ]}
  ]
}
